# Measured values: paper PMC11091888, “Evaluation of Fusobacterium nucleatum Enoyl-ACP Reductase (FabK) as a Narrow-Spectrum Drug Target” (ACS Infectious Diseases, 2024)
# “And” between values parts separate entries of the source, which are not always exact repeats. Equal values may be shown once. Read-outs that look alike come from different tables or passages of the source.
# Legend:
# CdFabK = system: CdFabK; set-up: method as in PMID 37224699; conditions: previously reported, cited from earlier work
# [1] = system: F. nucleatum 23726 overexpression strains; test: MIC against F. nucleatum 23726 transformed with empty vector, fabK or fabX under ATc-inducible promoter; assay type: cell-based, Fusobacterium nucleatum; conditions: for MIC: Fusobacterium nucleatum
# Method: The transformation of F. nucleatum 23726 was performed via electroporation as previously described,[41] except that Columbia broth was used. (i) Antisense vector: F. nucleatum gene silencing vector, pHFK2, was developed by inserting the ATc inducible paired-termini antisense sequences from the clostridial vector pMSPT into pCWU6, a F. nucleatum vector.[56] pCWU6 was amplified by PCR (CloneAmp polymerase) and recombined with the BamHI and KpnI fragments of pMSPT containing the Tet promoter and paired-termini sequences.[26] Antisense nucleotides targeting either 50 bp upstream and downstream of the fabK start codon (FabKAS1) or 25 bp upstream and 75 bp downstream (FabKAS2) were cloned into SphI and XhoI restriction sites of pHFK2. (ii) Complementation vectors: these were generated by PCR amplifying the fabK promoter and gene and introducing KpnI and HindIII restriction sites at 5′ and 3′ ends, respectively. Purified PCR amplicons were inserted into the KpnI and HindIII sites of pCWU6. (iii) Overexpression vectors: the corresponding gene, fabK or fabX, was amplified via PCR, introducing HindIII or SacI restriction sites to the 5′ end, respectively. BamHI restriction sites were introduced to the 3′ end of both. Purified PCR amplicons were inserted into the respective restriction sites of pHFK2. (iv) Allelic exchange vector: vector, pCWU8-FabK, was generated using a previously described protocol,[41],[56] whereby 1-kb regions upstream and downstream of fabK were cloned into the suicide vector pCWU8 using a Gibson Assembly Cloning Kit (New England Biolabs). The recombinant vector was transformed into strain F. nucleatum 23726ΔgalK, and successful integrants were collected that were resistant to thiamphenicol (5 μg/mL). Since the suicide vector expresses GalK, which is toxic in the presence of 2-deoxy-D-galactose (2-DG), the compound 2-DG (0.25% w/v) was added to counter-select for mutants that underwent a second homologous recombination. Ten resulting colonies were then tested for deletion of fabK via PCR, using primers in Table S7. The experiment was independently performed twice for a total of 20 colonies screened for fabK deletion. All experiments were done anaerobically at 37 °C in tryptic soy broth supplemented with 1% w/v peptone and 0.25% w/v autoclaved L-cysteine hydrochloride (TSPC) or TSPC agar with thiamphenicol or 2-DG.
# (§1) Compounds were twofold serially diluted (100–0.2 μg/mL) across a 96-well plate in 100 μL of media used for the specific organism (Table S4). For anaerobes, plates were incubated anaerobically at 37 °C for 1 h and then inoculated with approximately 10^5 to 10^6 CFU/well. Plates were incubated at 37 °C for up to 48 h, and MICs were read by visual inspection.
# [2] = Cytotoxicity against HCT116 cells (resazurin viability); assay type: cell-based; conditions: human, HCT116 colorectal carcinoma cells, maximum tested concentration 100 μg/mL
# Method: This was done as described[36] using colorectal carcinoma HCT116 and Vero epithelial cells cultured at 37 °C in 5% CO2 in Dulbecco’s modified Eagle’s medium (DMEM) with 4.5 g/L glucose and L-glutamine. The medium was supplemented with 10% v/v FetalGro (Rocky Mountain Biologicals). Approximately 25,000/well were aliquoted into black 96-well plates (Greiner Bio-One) and incubated overnight, before being resuspended in DMEM supplemented with 20% Gibco KnockOut Serum Replacement (Thermo Fisher Scientific). […] Cell viability was analyzed using resazurin as described.[36]
# S. pyogenes 19615 = test: Growth in FAS-II inhibitor with or without exogenous fatty acids; assay type: cell-based, Streptococcus pyogenes; conditions: fatty acid mixture of Table S2
# Method: (§2) To plates containing twofold serial dilutions of compounds, exponential phase cultures were added to a final OD600nm of 0.1. Plates containing F. nucleatum in Columbia broth were incubated at 37 °C inside of a Tecan Infinite 200 Pro, which was inside an anaerobic chamber; growth kinetics for Streptococcus spp. in brain heart infusion broth were done aerobically in the same Tecan instrument.
# E. faecalis FA2–2 = test: MIC against wild-type E. faecalis FA2-2 (FabI and FabK); assay type: cell-based, Enterococcus faecalis; conditions: E. faecalis FA2-2, possesses both FabI and FabK
# Method: as §1
# S. salivarius HM-121 = test: Growth in FAS-II inhibitor with or without exogenous fatty acids; assay type: cell-based, Streptococcus salivarius; conditions: fatty acid mixture of Table S2
# Method: as §2
# FnFabK = FnFabK (Fusobacterium nucleatum subsp. nucleatum, UniProt Q8RGV3); test: biochemical
# Method: Incubation lasted for a total of 10 min before the addition of crotonyl-CoA substrate, and the reaction was initiated by the addition of NADH for a final assay volume of 100 μL. The oxidation of NADH to NAD+ was measured by tracking fluorescence (340 nm/460 nm) with a Biotek Synergy H1 microplate reader in 15 s intervals for a total of 10 min to monitor the rate of reaction. The reaction was conducted in Greiner Bio-One 384-well μClear Bottom Polystyrene Microplates. […] Measurements were conducted in triplicate, and IC50’s were calculated via GraphPad Prism 9.1.2 using four-parameter logistic (Hill) curve analysis using equation Y = bottom + (top – bottom)/[1 + 10 (Log IC50 – X) × Hill Slope], where X is the logarithm of the dose and Y is the response. The assay concentrations of the cofactor, NADH, and substrate, crotonyl-CoA, were also determined via GraphPad Prism 9.1.2 using the substrate inhibition model to determine Km(app).
# [3] = Cytotoxicity against Vero cells (resazurin viability); assay type: cell-based; conditions: monkey, Vero epithelial cells, maximum tested concentration 100 μg/mL
# Method: This was done as described[36] using colorectal carcinoma HCT116 and Vero epithelial cells cultured at 37 °C in 5% CO2 in Dulbecco’s modified Eagle’s medium (DMEM) with 4.5 g/L glucose and L-glutamine. The medium was supplemented with 10% v/v FetalGro (Rocky Mountain Biologicals). Approximately 25,000/well were aliquoted into black 96-well plates (Greiner Bio-One) and incubated overnight, before being resuspended in DMEM supplemented with 20% Gibco KnockOut Serum Replacement (Thermo Fisher Scientific). Compounds (100–1.6 μg/mL) were then added to the cells and incubated for 24 h at 37 °C and 5% CO2. Cell viability was analyzed using resazurin as described.[36]
# Sequence of FnFabK (Q8RGV3 entry or part of it): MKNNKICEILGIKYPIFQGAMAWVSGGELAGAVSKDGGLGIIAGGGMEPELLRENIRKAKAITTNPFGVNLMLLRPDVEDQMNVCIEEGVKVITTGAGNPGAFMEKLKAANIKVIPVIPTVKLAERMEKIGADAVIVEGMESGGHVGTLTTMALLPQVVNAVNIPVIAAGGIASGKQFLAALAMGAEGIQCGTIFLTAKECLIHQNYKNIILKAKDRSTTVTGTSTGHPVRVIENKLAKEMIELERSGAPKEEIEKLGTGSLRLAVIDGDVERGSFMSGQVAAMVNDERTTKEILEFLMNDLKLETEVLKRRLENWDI
structure (smiles),measurement,setting,value
"CS(=O)(=O)c1ccc2nc(NC(=O)NCc3nc(-c4ccc(Br)cc4)c[nH]3)sc2c1 [Compound 681, 1-((4-(4-bromophenyl)-1H-imidazole-2-yl)methyl)-3-(6-(methylsulfonyl)benzo[d]thiazol-2-yl)urea]","IC50 against CdFabK, equivalent concentration",CdFabK,0.2 µg/mL
same,IC50,CdFabK; read-out: IC50 against CdFabK,450 nM
same,"MIC, FabK overexpression, induced","[1]; F. nucleatum 23726 pTET-fabK, 62.5 ng/mL ATc",>100 µg/mL
same,MIC,"[1]; read-out: MIC, FabK overexpression, induced",> 100 µg/mL
same,MIC,"[1]; read-out: MIC, FabK overexpression, uninduced",0.8 µg/mL
same,MIC,"[1]; read-out: MIC, FabX overexpression, induced",3.1 µg/mL
same,MIC,"[1]; read-out: MIC, FabX overexpression, uninduced",0.8 µg/mL
same,MIC,"[1]; read-out: MIC, empty vector, induced",0.4 µg/mL
same,MIC,"[1]; read-out: MIC, empty vector, uninduced",0.8 µg/mL
same,IC50 at 24 h,[2],> 100 µg/mL
same,Increase in biomass (OD600nm) in the presence of inhibitor and exogenous fatty acids,S. pyogenes 19615,4–5 fold
same,MIC Ef wild-type,E. faecalis FA2–2,100 µg/mL and >100 µg/mL
same,MIC,"E. faecalis FA2–2; Enterococcus faecalis, read-out: MIC Ef wild-type",> 100 µg/mL
same,Increase in biomass (OD600nm) in the presence of inhibitor and exogenous fatty acids,S. salivarius HM-121,twofold
same,IC50,"FnFabK; IC50 against FnFabK, equivalent concentration, conversion of the μM value",1.97 µM
same,Hill coefficient (FnFabK inhibition),FnFabK; four-parameter logistic fit,1.01
same,IC50 at 24 h,[3],> 100 µg/mL
